Experimental findings from ChEMBL document CHEMBL5236640, “SAR study of 1,2-benzisothiazole dioxide compounds that agonize HIF-2 stabilization and EPO production” (Bioorg Med Chem, 2023) are described below.

The target of test [1] is Aryl hydrocarbon receptor nuclear translocator/Endothelial PAS domain-containing protein 1 (Homo sapiens) (UniProt P27540+Q99814). The conditions noted are these: filed as agonist, dose 10.0 µM.
Test [2] has as its target Endothelial PAS domain-containing protein 1 (Homo sapiens) (UniProt Q99814). The test can be described thus: Agonist activity at human HIF-2alpha expressed in human 786-0 cells assessed as increase in NDRG1 transcription level at 20 uM incubated for 24 hrs by RT-PCR analysis relative to control. The format is cell-based. The conditions noted are these: filed as agonist.

Test [3] has the same target. The test is described as follows: Agonist activity at human HIF-2alpha expressed in human 786-0 cells assessed as increase in GLUT1 transcription level at 20 uM incubated for 24 hrs by RT-PCR analysis relative to control. The class given is cell-based. The conditions noted are these: filed as agonist.
Test [4] has the same target. The test can be described thus: Synergistic agonist activity at human HIF-2alpha expressed in human Hep3B cells assessed as induction of EPO transcription at 5 uM pretreated with FG4592 followed by compound addition and measured after 12 hrs by qRT-PCR analysis. The class given is cell-based. The conditions noted are these: filed as agonist.
Test [5] shares this target. The test can be described thus: Agonist activity at human HIF-2alpha expressed in human 786-0 cells assessed as increase in PGK1 transcription level at 20 uM incubated for 24 hrs by RT-PCR analysis relative to control. The format is cell-based. The conditions noted are these: filed as agonist.
Test [6] shares this target. The test can be described thus: Agonist activity at human HIF-2alpha expressed in human 786-0 cells assessed as increase in VEGFA transcription level at 20 uM incubated for 24 hrs by RT-PCR analysis relative to control. The format is cell-based. The conditions noted are these: filed as agonist.
Test [7] shares this target. The test can be described thus: Agonist activity at human HIF-2alpha expressed in human 786-0 cells assessed as increase in VEGFA transcription level at 0.2 uM incubated for 24 hrs by RT-PCR analysis relative to control. The format is cell-based. The conditions noted are these: filed as agonist.
Test [8] has the same target. The test is described as follows: Agonist activity at human HIF-2alpha expressed in human 786-0 cells assessed as increase in NDRG1 transcription level at 0.2 uM incubated for 24 hrs by RT-PCR analysis relative to control. The class given is cell-based. The conditions noted are these: filed as agonist.
Test [9] shares this target. The test can be described thus: Agonist activity at human HIF-2alpha expressed in human 786-0 cells assessed as increase in VEGFA transcription level at 2 uM incubated for 24 hrs by RT-PCR analysis relative to control. The format is cell-based. The conditions noted are these: filed as agonist.
Test [10] has the same target. The test can be described thus: Agonist activity at human HIF-2alpha expressed in human 786-0 cells assessed as increase in NDRG1 transcription level at 2 uM incubated for 24 hrs by RT-PCR analysis relative to control. The class given is cell-based. The conditions noted are these: filed as agonist.

Active and inactive are the calls of the source. The calls are words filed in the database; no cut-off is given here.

Chain of Aryl hydrocarbon receptor nuclear translocator/Endothelial PAS domain-containing protein 1 (Homo sapiens) (P27540 2-789 limits assumed): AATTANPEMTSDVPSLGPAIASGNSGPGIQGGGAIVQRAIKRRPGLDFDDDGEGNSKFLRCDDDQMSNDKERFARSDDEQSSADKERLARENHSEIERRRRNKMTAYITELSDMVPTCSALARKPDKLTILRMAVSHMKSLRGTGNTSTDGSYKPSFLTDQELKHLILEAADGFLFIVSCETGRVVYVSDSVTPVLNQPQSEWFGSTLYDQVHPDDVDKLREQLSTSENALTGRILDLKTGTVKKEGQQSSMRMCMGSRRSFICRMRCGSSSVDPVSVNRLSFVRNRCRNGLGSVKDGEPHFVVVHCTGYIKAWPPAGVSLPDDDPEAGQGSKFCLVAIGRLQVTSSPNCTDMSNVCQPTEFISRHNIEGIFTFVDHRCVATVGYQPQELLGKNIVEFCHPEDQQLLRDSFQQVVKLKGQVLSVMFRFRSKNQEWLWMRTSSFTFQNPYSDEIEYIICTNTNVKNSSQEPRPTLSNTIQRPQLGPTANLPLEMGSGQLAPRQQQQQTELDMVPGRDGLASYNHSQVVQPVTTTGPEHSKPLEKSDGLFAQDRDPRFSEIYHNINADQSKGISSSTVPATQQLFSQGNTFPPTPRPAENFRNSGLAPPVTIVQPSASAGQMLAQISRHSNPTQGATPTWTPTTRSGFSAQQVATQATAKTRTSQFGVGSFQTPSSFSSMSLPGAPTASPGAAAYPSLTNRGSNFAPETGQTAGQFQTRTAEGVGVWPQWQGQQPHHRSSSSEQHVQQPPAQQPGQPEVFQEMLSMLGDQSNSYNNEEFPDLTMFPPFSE
Chain of Aryl hydrocarbon receptor nuclear translocator/Endothelial PAS domain-containing protein 1 (Homo sapiens) (Q99814 whole entry partner, the tested form may be a part): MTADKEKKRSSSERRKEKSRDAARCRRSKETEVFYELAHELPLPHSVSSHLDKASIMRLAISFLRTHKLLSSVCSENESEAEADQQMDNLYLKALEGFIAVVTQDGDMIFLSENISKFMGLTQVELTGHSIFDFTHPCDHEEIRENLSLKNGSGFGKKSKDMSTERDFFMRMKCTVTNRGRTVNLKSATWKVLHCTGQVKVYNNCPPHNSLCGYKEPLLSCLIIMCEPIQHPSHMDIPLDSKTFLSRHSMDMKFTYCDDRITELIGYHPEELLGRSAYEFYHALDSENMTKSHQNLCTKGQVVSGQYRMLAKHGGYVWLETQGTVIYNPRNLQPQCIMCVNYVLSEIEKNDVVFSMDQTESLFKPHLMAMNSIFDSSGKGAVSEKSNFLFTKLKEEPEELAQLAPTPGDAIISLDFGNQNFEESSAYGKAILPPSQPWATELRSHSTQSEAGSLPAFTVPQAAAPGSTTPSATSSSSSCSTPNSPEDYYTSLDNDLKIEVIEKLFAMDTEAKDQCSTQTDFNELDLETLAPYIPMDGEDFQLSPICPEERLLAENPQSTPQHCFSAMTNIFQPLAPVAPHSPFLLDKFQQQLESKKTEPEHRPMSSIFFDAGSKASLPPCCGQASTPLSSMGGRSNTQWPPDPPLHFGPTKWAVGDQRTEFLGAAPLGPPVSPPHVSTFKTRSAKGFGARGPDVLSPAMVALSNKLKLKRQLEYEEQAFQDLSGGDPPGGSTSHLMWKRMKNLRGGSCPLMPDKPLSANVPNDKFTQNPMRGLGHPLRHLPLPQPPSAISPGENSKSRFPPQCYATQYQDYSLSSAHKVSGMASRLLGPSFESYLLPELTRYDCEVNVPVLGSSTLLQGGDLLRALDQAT
Chain of Endothelial PAS domain-containing protein 1 (Homo sapiens) (Q99814 whole entry, the tested form may be a part): as the sequence (Q99814 whole entry partner, the tested form may be a part) above

On to `CS(=O)(=O)c1cc(NC2=NS(=O)(=O)c3ccccc32)cc(S(C)(=O)=O)c1`, for which the ΔTm in [1] worked out at 0 °C.

For `O=S1(=O)N=C(Nc2cc(C(F)(F)F)cc(C(F)(F)F)c2)c2ccccc21`, the Activity in [2] worked out at 272%; in test [3], 132%; in test [5], 55%; in test [6] it was 161%. In test [4], the result was Active. In addition, the shift in melting temperature (ΔTm) in [1] is 0.89 °C.

In the case of `O=S1(=O)N=C(Nc2cc(C(F)(F)F)cc(C(F)(F)F)c2)c2ccc(Br)cc21`, the result in test [4] was Active. For the same compound, the ΔTm in test [1] stood at 0.07 °C.

Turning to `O=S1(=O)N=C(Nc2cc(F)ccc2F)c2ccccc21`, the ΔTm in [1] worked out at 0.07 °C.

On to `O=C(O)c1cc(NC2=NS(=O)(=O)c3ccccc32)cc(C(=O)O)c1`, for which, in test [4], the result was Active. Besides, the ΔTm in test [1] was found to be 0.74 °C.

For the compound `CC(=O)c1cccc(NC2=NS(=O)(=O)c3ccccc32)c1`, the ΔTm in test [1] is -0.13 °C.

With `O=S1(=O)N=C(Nc2cccc(C(F)(F)F)c2)c2ccccc21`, the Activity in test [2] was found to be 89.4%; in test [3] it was 80.9%; in [5] it was 102%; in [6], 77.9%. The outcome in test [4] was Active. Further, the ΔTm in [1] was 0.74 °C.

Take `O=S1(=O)N=C(Nc2cc(F)cc(F)c2)c2cc(Br)ccc21`: the outcome in test [4] was Active. The shift in melting temperature (ΔTm) in test [1] was 0.37 °C.

Take `O=S1(=O)N=C(Nc2cccc(F)c2F)c2ccccc21`: the ΔTm in test [1] is -0.15 °C.

Turning to `O=S1(=O)N=C(Nc2ccc(C(F)(F)F)cc2)c2ccccc21`, the Activity amounted to 95.1% in test [2], 76.8% in test [3], 90% in test [5] and 85.7% in test [6]. Also, the outcome in [4] was Active. Besides, in test [1], the ΔTm worked out at 0.44 °C.

For `N#Cc1cccc(NC2=NS(=O)(=O)c3ccccc32)c1`, the ΔTm in test [1] stood at 0.07 °C.

Consider `O=S1(=O)C=C(Nc2cc(C(F)(F)F)cc(C(F)(F)F)c2)c2ccccc21`, for which the result in test [4] was Active. Further, the ΔTm in test [1] came to 0.44 °C.

For `O=S1(=O)N=C(Nc2cc(C(F)(F)F)cc(C(F)(F)F)c2)c2cc(F)ccc21`, in test [1], the ΔTm was -0.14 °C.

In the case of `CN(C1=NS(=O)(=O)c2ccccc21)c1cc(C(F)(F)F)cc(C(F)(F)F)c1`, the Activity in test [2] stood at 96.6%; in test [5] it was 97%; in test [6] it was 124%. For the same compound, the outcome in test [4] was Active. In addition, in test [1], the ΔTm amounted to 0.44 °C.

Regarding `FC(F)(F)c1cc(Nc2csc3ccccc23)cc(C(F)(F)F)c1`, the Activity in test [2] was 92.1%; in [3], 87.4%; in test [5], 62%; in test [6], 102%. The ΔTm in test [1] was found to be 0.1 °C.

On to `COC(=O)c1cc(C#N)cc(NC2=NS(=O)(=O)c3ccccc32)c1`, for which the outcome in [4] was Active. The ΔTm in test [1] amounted to 1.28 °C.

Take `COc1cc(NC2=NS(=O)(=O)c3ccccc32)cc(OC)c1`: the result in test [4] was Active. For the same compound, the ΔTm in [1] was 0 °C.

In the case of `COC(=O)c1cc(NC2=NS(=O)(=O)c3ccccc32)cc(C(=O)OC)c1`, the shift in melting temperature (ΔTm) in test [1] came out at 0.02 °C.

Turning to `O=S1(=O)N=C(Nc2cc(F)cc(F)c2)c2ccc(Br)cc21`, the ΔTm in test [1] was -0.06 °C.

Take `O=S1(=O)N=C(Nc2ccc(F)cc2)c2ccccc21`: in test [1], the ΔTm is 0.3 °C.

In the case of `O=S1(=O)N=C(Nc2cccc(F)c2)c2ccccc21`, the ΔTm in test [1] stood at 0.17 °C.

As for `O=S1(=O)N=C(Nc2ccc(F)c(F)c2)c2ccccc21`, the outcome in test [4] was Active. Also, the ΔTm in [1] is 0.29 °C.

`O=S1(=O)N=C(Nc2ccc(F)cc2F)c2ccccc21`: the ΔTm in test [1] was 0.14 °C.

Consider `O=S1(=O)N=C(Nc2ccccc2F)c2ccccc21`, for which the ΔTm in [1] is 0.22 °C.

For `N#Cc1ccc2c(c1)C(Nc1cc(C(F)(F)F)cc(C(F)(F)F)c1)=NS2(=O)=O`, the result in [4] was Active. Further, the ΔTm in test [1] amounted to 0.83 °C.

For the compound `O=S1(=O)N=C(Oc2cc(C(F)(F)F)cc(C(F)(F)F)c2)c2ccccc21`, the Activity in test [2] was 97.6%; in [5], 124%; in test [6], 105%. The outcome in [4] was Active. Also, the ΔTm in [1] was determined as 0.07 °C.

With `COc1ccc2c(c1)C(Nc1cc(C(F)(F)F)cc(C(F)(F)F)c1)=NS2(=O)=O`, in [1], the ΔTm was -0.29 °C.

On to `O=S1(=O)N=C(Nc2cc(C(F)(F)F)cc(C(F)(F)F)c2)c2cc(Cl)ccc21`, for which, in test [1], the ΔTm is -0.1 °C.

For `O=S1(=O)N=C(Nc2cc(F)cc(F)c2)c2ccccc21`, the Activity is 214% in test [2], 185% in test [3], 72% in test [5] and 146% in test [6]. The outcome in test [4] was Active. In test [1], the ΔTm stood at 0.55 °C.

As to `O=S1(=O)N=C(Nc2cc(C(F)(F)F)cc(C(F)(F)F)c2)c2cc(Br)ccc21`, the Activity in [7] is 93.3%; in test [8] it was 88%; in test [2], 432%; in [3], 218%; in [9] it was 116%; in test [10], 110%. For the same compound, the Activity was 117% in test [5] and 265% in test [6]. Also, in test [4], the result was Active. Besides, the ΔTm in [1] was 0.87 °C.

In the case of `N#Cc1cc(NC2=NS(=O)(=O)c3ccccc32)cc(C(F)(F)F)c1`, in [4], the outcome was Active. Moreover, the ΔTm in [1] was determined as 0.96 °C.

With `[O-][s+]1cc(Nc2cc(C(F)(F)F)cc(C(F)(F)F)c2)c2ccccc21` (stereo unspecified), the Activity is 87.4% in test [2], 108% in test [3], 127% in test [5] and 111% in test [6]. The ΔTm in [1] turned out to be 0.17 °C.

Regarding `O=S1(=O)N=C(Nc2ccccc2)c2ccccc21`, the Activity in [2] was 126%; in test [3] it was 96.3%; in [5], 90%; in test [6], 140%. Also, the ΔTm in test [1] turned out to be 0.02 °C.

By ΔTm is commonly meant the shift of the melting midpoint relative to a reference.
